Source: US11273163B2, “Antiviral treatment” (priority 2020, dated 2022)
Several values for one entry are separate records, joined by “and”; a condition that tells them apart may be missing. Equal values may be shown once. Read-outs that look alike come from different tables or passages of the source.

Key:
SARS-CoV-2 [1] = experiment: microbe, parasite or virus in culture; format: cell-based; conditions: for reduction of viral particle numbers: up to; for viral particle/μL: 48 h post infection, median
SARS-CoV-2 B.1.351 = experiment: microbe, parasite or virus in culture; format: cell-based; conditions: Severe acute respiratory syndrome coronavirus 2, Vero/TMPRSS2, 48 h, read-out: inhibition of infection (relative to no azelastine treated cells)
SARS-CoV-2 B.1.1.7 = experiment: microbe, parasite or virus in culture; format: cell-based; conditions: Severe acute respiratory syndrome coronavirus 2, Vero/TMPRSS2, 48 h, B1.1.7, 48 h, read-out: inhibition of infection (relative to no azelastine treated cells)
[2] = test system: reconstituted human nasal tissue (MucilAir); conditions: without virus infection
SARS-CoV-2 [3] = format: cell-based; conditions: for cytopathogenic score: Vero E6, MOI 0.1, 48 hours post infection
SARS-CoV-2 [4] = format: cell-based; conditions: Calu-3, MOI 0.01, 48 h
RSV Long strain [5] = format: cell-based, Respiratory Syncytial Virus; conditions: all 3 settings (preventive, co-administration, therapeutic), 48 h
RSV Long strain [6] = format: cell-based, Respiratory Syncytial Virus; conditions: 6.4 μM
HEp-2 cells = experiment: Cytotoxicity towards HEp-2 cells, flow cytometry with propidium iodide; format: cell-based; conditions: non-infected, 48 h
Experimental: Mean and SEM were calculated from 3 independent experiments.

influenza H1N1 = format: cell-based, influenza A virus H1N1; conditions: hydrochloride

CN1CCCC(n2nc(Cc3ccc(Cl)cc3)c3ccccc3c2=O)CC1 (stereo not shown) [Azelastine, 4-[(4-chlorophenyl)methyl]-2-(1-methylazepan-4-yl)phthalazin-1-one]
EC50 (SARS-CoV-2 [1]; Severe acute respiratory syndrome coronavirus 2, Vero C1008, wild-type SARS-CoV-2, read-out: EC50 observed for the wild-type virus): ~6 µM | reduction of viral particle numbers (SARS-CoV-2 [1]; co-administration (simulating prevention)): > 99% | viral particle/μL (SARS-CoV-2 [1]; co-administration, 3.125 μM): 98.4 viral particle/μL | viral particle/μL (SARS-CoV-2 [1]; co-administration, 6.25 μM): 15.45 viral particle/μL | viral particle/μL (SARS-CoV-2 [1]; co-administration, 12.5 μM): 12.25 viral particle/μL | viral particle/μL (SARS-CoV-2 [1]; co-administration, 25 μM): 0.2 viral particle/μL | viral particle/μL (SARS-CoV-2 [1]; post-infection administration, 3.125 μM): 138 viral particle/μL | viral particle/μL (SARS-CoV-2 [1]; post-infection administration, 6.25 μM): 68.4 viral particle/μL | viral particle/μL (SARS-CoV-2 [1]; post-infection administration, 12.5 μM): 52 viral particle/μL | viral particle/μL (SARS-CoV-2 [1]; post-infection administration, 25 μM): 6.865 viral particle/μL | reduction of viral particle numbers (SARS-CoV-2 [1]; post-infection administration): > 97% | inhibition at 3.125 µM (SARS-CoV-2 B.1.351; preventive setting): 32.9% | inhibition at 6.25 µM (SARS-CoV-2 B.1.351; preventive setting): 74.9% | inhibition at 12.5 µM (SARS-CoV-2 B.1.351; preventive setting): 99.1% | inhibition at 3.125 µM (SARS-CoV-2 B.1.351; therapeutic setting): 22% | inhibition at 6.25 µM (SARS-CoV-2 B.1.351; therapeutic setting): 55% | inhibition at 12.5 µM (SARS-CoV-2 B.1.351; therapeutic setting): 97.6% | inhibition at 3.125 µM (SARS-CoV-2 B.1.1.7; preventive setting): 23.8% | inhibition at 6.25 µM (SARS-CoV-2 B.1.1.7; preventive setting): 72.8% | inhibition at 12.5 µM (SARS-CoV-2 B.1.1.7; preventive setting): 98.8% | inhibition at 3.125 µM (SARS-CoV-2 B.1.1.7; therapeutic setting): 2.57% | inhibition at 6.25 µM (SARS-CoV-2 B.1.1.7; therapeutic setting): 47.4% | inhibition at 12.5 µM (SARS-CoV-2 B.1.1.7; therapeutic setting): 91.7% | tissue morphology versus control [2]: No difference in tissue morphology

CN1CCCC(n2nc(Cc3ccc(Cl)cc3)c3ccccc3c2=O)CC1.Cl (stereo not shown) [Azelastine-HCl, 4-[(4-chlorophenyl)methyl]-2-(1-methylazepan-4-yl)phthalazin-1-one; hydrochloride]
cytopathogenic score (SARS-CoV-2 [3]; 3.125 μM): 2 | cytopathogenic score (SARS-CoV-2 [3]; 6.25 μM): 2 | reduction of viral particle numbers (SARS-CoV-2 [4]; 25 μM): over 90% | reduction of viral particle numbers (SARS-CoV-2 [4]; 50 μM, up to): > 99% | RSV infection of cells by spot count, compared to vehicle (DMSO) treated controls (RSV Long strain [5]; 3.2 μM): ~50% | RSV infection of cells by spot count, compared to vehicle (DMSO) treated controls (RSV Long strain [5]; 6.4 μM): ~50% | Ct (cycle threshold in PCR reaction) (RSV Long strain [6]; co-administration, experiment #1): 27.99 | Ct (cycle threshold in PCR reaction) (RSV Long strain [6]; co-administration, experiment #2): 27.21 | Ct (cycle threshold in PCR reaction) (RSV Long strain [6]; preventive, experiment #1): 27.5 | Ct (cycle threshold in PCR reaction) (RSV Long strain [6]; preventive, experiment #2): 27.17 | Ct (cycle threshold in PCR reaction) (RSV Long strain [6]; therapeutic, experiment #1): 27.95 | Ct (cycle threshold in PCR reaction) (RSV Long strain [6]; therapeutic, experiment #2): 27.27 | cytotoxicity to HEp-2 cells (HEp-2 cells; 12.8 μM): showed cytotoxicity | cytotoxicity to HEp-2 cells (HEp-2 cells; 25.6 μM): showed cytotoxicity | reduction in viral genome copy (influenza H1N1): 98.74% and 87.4%

Maraviroc
cytopathogenic score (SARS-CoV-2 [3]; 3.125 μM): 4 | cytopathogenic score (SARS-CoV-2 [3]; 6.25 μM): 4 | cytopathogenic score (SARS-CoV-2 [3]; 12.5 μM): 3 | cytopathogenic score (SARS-CoV-2 [3]; 25 μM): 3 | cytopathogenic score (SARS-CoV-2 [3]; 50 μM): 3 | protective effect (SARS-CoV-2 [3]; higher concentrations (12.5 to 50 μM)): only marginal protective effect | protective effect (SARS-CoV-2 [3]; lower concentrations): not effective at all
